Ends that are not written are not given here.
How the values were obtained:
HeLa cells = experiment: Mitochondrial ROS generation, MitoSox, confocal; assay type: cell-based, human; conditions: MitoSox 5 μM, 10 min, 20 μM peptide (FIG. 8)
Experimental: In brief, HeLa cells were grown to 70% confluency on a Lab-Tek chamber glass slide one day before the experiment. The cells were stained for 10 min with 5 μM of the mitochondrial ROS indicator MitoSox (Invitrogen) in order to visualize ROS generation. Then, the cells were incubated with eMTDΔ4 (SEQ ID NO: 2) for 10 min during which confocal micrographic images were taken to monitor cell morphologies and ROS generation.

[1] = tested on: mitochondria isolated from livers of BalB/C mice; experiment: Mitochondrial swelling, absorbance at 540 nm / TEM; assay type: biochemical; conditions: for Mitochondrial swelling, relative absorbance at 540 nm: peptides 25 μM, Ca2+ 200 μM, CsA 20 μM
Experimental: First, livers excised from 6-week-old BalB/C mice were immersed in buffer (250 mM mannitol, […], 5 mM HEPES, pH 7.4, 0.1 mM PMSF and 4 rotenone) and completely homogenized using a Teflon Potter-Elvehjem grinder (Sigma). The ground liver was centrifuged at 1000×g for 10 min at 4° C. and the supernatants were centrifuged at 10,000×g for 10 min at 4° C. The pellets thus obtained were suspended in a regeneration buffer (250 mM sucrose, 10 mM HEPES, pH 7.4, 5 mM sodium succinate, 2 mM potassium phosphate, 0.1 mM PMSF, 25 μM EGTA, and 4 rotenone).
The mitochondria thus obtained were treated with 25 μM of eMTD (SEQ ID NO: 1) or eMTDΔ4 (SEQ ID NO: 2), followed by reading absorbance at 540 nm to determine mitochondrial swelling.

KLNFRQKLLNLISKLF [eMTDΔ4]
mitochondrial ROS level (HeLa cells): abruptly increased in ROS level just after the cell membrane bubbling
mitochondrial swelling (in words) ([1]; 25 μM, absorbance 540 nm and TEM, FIGS. 6A and 6B): induce mitochondrial swelling
Mitochondrial swelling, relative absorbance at 540 nm ([1]; Minute 0): 100%
Mitochondrial swelling, relative absorbance at 540 nm ([1]; Minute 10): 79%
Mitochondrial swelling, relative absorbance at 540 nm ([1]; Minute 20): 74%
Mitochondrial swelling, relative absorbance at 540 nm ([1]; Minute 30): 70%
Mitochondrial swelling, relative absorbance at 540 nm ([1]; Minute 40): 68%
Mitochondrial swelling, relative absorbance at 540 nm ([1]; Minute 50): 66%
Mitochondrial swelling, relative absorbance at 540 nm ([1]; Minute 60): 65%
